Laboratory results from patent publication US20260315462A1, “METHODS OF TREATING RELAPSING MULTIPLE SCLEROSIS USING AN INHIBITOR OF BRUTON'S TYROSINE KINASE” (Genentech, Inc., priority 2023, published 2026).

Key:
[1] = test system: new Gd-enhancing T1 lesions and new or enlarging T2-weighted lesions on brain MRI; experiment: Proportion of participants free from any new Gd-enhancing T1 lesions and new or enlarging T2-weighted lesions on brain MRI, Phase II RMS study (secondary endpoint); assay type: in vivo, human
Source text: (§1) This Phase II study was undertaken to evaluate the effect of fenebrutinib on brain magnetic resonance imaging (MRI) in participants with RMS. Participants were randomized to receive either fenebrutinib or placebo. In addition to MRI evaluations, participants were also monitored for other clinical outcomes of disease, including disability progression and MS relapse, as described more fully below.
(§2) Study Design: This clinical trial comprised a double-blind treatment (DBT) phase, where participants were randomized in a 2:1 ratio to receive either 200 mg BID oral fenebrutinib or non-active placebo, administered for 12 weeks. Participants were directed to self-administer two 100 mg tablets in the morning and two 100 mg tablets in the evening by mouth, for a total dose of 400 mg of fenebrutinib (or placebo) every day.
(§3) A total of 109 adults aged 18-55 with RMS were enrolled in the study: 73 in the fenebrutinib arm, and 36 in the placebo arm. […] Accordingly, the analysis of outcome for the double blind phase of the study included 70 patients in the fenebrutinib arm, and 36 patients in the placebo arm.
(§4) MRI Measurements: The primary efficacy endpoint for this study was the total number of new gadolinium-enhancing T1 (T1Gd+) lesions on brain MRI measured at Weeks 4, 8, and 12 of administration. The secondary efficacy outcomes were (1) the total number of new or enlarging T2-weighted lesions on brain MRI measured at Weeks 4, 8, and 12, and (2) the proportion of participants free from any new Gd-enhancing T1 lesions and new or enlarging T2-weighted lesions observed on brain MRI at Weeks 4, 8, and 12. Radiologic evaluation for the primary efficacy parameter was performed using a standardized MRI protocol at screening, and at Weeks 4, 8, and 12 for each participant.
Results: Secondary Endpoint-Proportion of Participants Free from any new Gd+ Enhancing T1 Lesions and New or Enlarging T2-weighted Lesions at Weeks 4, 8, and 12: This secondary endpoint was also met, and a summary of the analysis provided in Table 8.

[2] = test system: new T1-hypointense lesions on MRI; experiment: New T1-hypointense lesions on MRI, Phase II RMS study (exploratory endpoint); assay type: in vivo, human
Source text: as §1, §2, §3
Exploratory Endpoints: Exploratory endpoints included the total number of new T1-hypointense lesions on MRI at weeks 4, 8, and 12; the fenebrutinib concentration in CSF collected at baseline and at or after Week 12; and plasma pharmacokinetics.
Results: Exploratory Endpoint-Hypointense T1 Lesions: The number of T1 hypointense lesions was evaluated at Week 4, 8, and 12 as an exploratory endpoint. […] FIG. 4 provides bar graphs illustrating some of the data in this table and providing additional analyses. In this figure, the large arrows indicate the relative reduction (95% confidence interval) of lesions. The proportion of patients with new T1 hypointense lesions is the number of participants that have a new lesion at that specific visit alone divided by the number of participants with a scan at that specific visit alone at the indicated week. There was a 58% reduction and only 3.2% of patients with new hypointense T1 lesions at Week 12.

[3] = test system: new or enlarging T2-weighted lesions on brain MRI; experiment: New or enlarging T2-weighted lesions on brain MRI, Phase II RMS study (secondary endpoint); assay type: in vivo, human
Source text: as §1, §2, §3, §4
Results: Secondary Endpoint-Total Number of New or Enlarging T2-Weighted Lesions at Weeks 4, 8, and 12 combined: This secondary endpoint was met, and a summary of this secondary endpoint analysis is provided in Table 5. FIG. 3 provides bar graphs illustrating some of the data in these tables and providing additional analyses. In this figure, the large arrows indicate the relative reduction (95% confidence interval) of lesions. The proportion of patients with new/enlarging T2-weighted lesions is the number of participants that have a new lesion at that specific visit alone divided by the number of participants with a scan at that specific visit alone at the indicated week. There was a 95% reduction and only 3.2% of patients with new/enlarging lesions at Week 12.

[4] = test system: BCR-dependent B-cell proliferation; conditions: in vitro cell-based experiments; cited from earlier work
[5] = Week 12, participants with a new lesion at that visit divided by participants with a scan at that visit

C[C@H]1CN(C2COC2)CCN1c1ccc(Nc2cc(-c3ccnc(N4CCn5c(cc6c5CC(C)(C)C6)C4=O)c3CO)cn(C)c2=O)nc1 [Fenebrutinib, (S)-2-(3′-(hydroxymethyl)-1-methyl-5-((5-(2-methyl-4-(oxetan-3-yl)piperazin-1-yl)pyridin-2-yl)amino)-6-oxo-1,6-dihydro-[3,4′-bipyridin]-2′-yl)-7,7-dimethyl-2,3,4,6,7,8-hexahydro-1H-cyclopenta[4,5]pyrrolo[1,2-a]pyrazin-1-one]
No. of patients free from T1 Gd+ and T2-weighted lesions, Week 4 ([1]; Week 4, N = 70, placebo 21 of 36): 51
Proportion free from new T1 Gd+ and new or enlarging T2-weighted lesions, Week 4 ([1]; Week 4, N = 70, placebo 58.3%): 72.9%
No. of patients free from T1 Gd+ and T2-weighted lesions, Week 8 ([1]; Week 8, N = 67, placebo 20 of 34): 63
Proportion free from new T1 Gd+ and new or enlarging T2-weighted lesions, Week 8 ([1]; Week 8, N = 67, placebo 58.8%): 94.0%
No. of patients free from T1 Gd+ and T2-weighted lesions, Week 12 ([1]; Week 12, N = 63, placebo 24 of 33): 61
Proportion free from new T1 Gd+ and new or enlarging T2-weighted lesions, Week 12 ([1]; Week 12, N = 63, placebo 72.7%): 96.8%
No. of patients who are free from new T1 Gd+ and New or Enlarging T2-weighted Lesions During DBT ([1]; overall, weeks 4, 8, and 12, N = 70, placebo 18): 51
Proportion of patients free from new T1 Gd+ and new or enlarging T2-weighted lesions, overall ([1]; overall, weeks 4, 8, and 12, N = 70, placebo 50.0%): 72.9%
Odds Ratio, adjusted (free from new T1 Gd+ and new or enlarging T2-weighted lesions) ([1]; vs placebo, weeks 4, 8, and 12, 95% CI (exact) (1.317, 13.078), p-value (exact) 0.0117): 4.005
likelihood to be free from new T1 Gd+ lesions and new or enlarging T2-weighted lesions ([1]; weeks 4, 8, and 12, compared to placebo group): four times more likely to be free from new T1 Gd+ lesions and new or enlarging T2-weighted lesions
effect on T1 hypointense lesions ([2]; Week 4, 8, and 12, compared to placebo): reduced T1 hypointense lesions at all three time points
proportion of patients with new T1 hypointense lesions, Week 12 [2, 5]: 3.2%
patients with new T1 hypointense lesions after Week 4 ([2]; after Week 4 of treatment, compared to placebo): few patients had new lesions after Week 4 of treatment
Relative Reduction of T1 hypointense lesions, Week 4 ([2]; vs placebo, Week 4, 95% CI −106%, 87%): 48%
Relative Reduction of T1 hypointense lesions, Week 8 ([2]; vs placebo, Week 8, 95% CI −62%, 92%): 64%
Relative Reduction of T1 hypointense lesions, Week 12 ([2]; vs placebo, Week 12, 95% CI −131%, 92%): 58%
Relative Reduction of T1 hypointense lesions, Weeks 4, 8, and 12 ([2]; vs placebo, Weeks 4, 8, and 12, 95% CI −12%, 89%): 64%
Number of New or Enlarging T2-Weighted Lesions, Mean (SD), Week 4 ([3]; 200 mg BID oral, Week 4, n = 70, min-max 0-21, placebo 1.222 (2.218)): 1.043 (2.990)
Number of New or Enlarging T2-Weighted Lesions, Mean (SD), Week 8 ([3]; 200 mg BID oral, Week 8, n = 67, min-max 0-4, placebo 0.824 (1.359)): 0.104 (0.526)
Number of New or Enlarging T2-Weighted Lesions, Mean (SD), Week 12 ([3]; 200 mg BID oral, Week 12, n = 63, min-max 0-1, placebo 0.545 (1.121)): 0.032 (0.177)
Total Number of New or Enlarging T2-Weighted Lesions ([3]; 200 mg BID oral, Weeks 4, 8, and 12 combined, N = 70, 201 scans, placebo 90): 82
New or Enlarging T2-Weighted Lesion rate, adjusted ([3]; 200 mg BID oral, Weeks 4, 8, and 12 combined, placebo 0.634): 0.168
New or Enlarging T2-Weighted Lesion rate, unadjusted ([3]; 200 mg BID oral, Weeks 4, 8, and 12 combined, placebo 0.874): 0.408
proportion of patients with new/enlarging T2-weighted lesions, Week 12 [3, 5]: 3.2%
Relative Reduction of New or Enlarging T2-Weighted Lesions, Week 4 ([3]; vs placebo, Week 4, 95% CI −13%, 77%): 49%
Relative Reduction of New or Enlarging T2-Weighted Lesions, Week 8 ([3]; vs placebo, Week 8, 95% CI 72%, 96%): 90%
Relative Reduction of New or Enlarging T2-Weighted Lesions, Week 12 ([3]; vs placebo, Week 12, 95% CI 77%, 99%): 95%
Rate Ratio, adjusted (new or enlarging T2-weighted lesions) ([3]; vs placebo, Weeks 4, 8, and 12 combined, 95% CI (0.128, 0.550)): 0.265
Relative Reduction in new or enlarging T2-weighted lesions ([3]; vs placebo, Weeks 4, 8, and 12 combined, 95% CI (45.0%, 87.2%), p-value 0.0004): 73.5%
Relative Reduction of New or Enlarging T2-Weighted Lesions, Weeks 8 and 12 ([3]; vs placebo, Weeks 8 and 12): 93%
BCR-dependent B-cell proliferation [4]: inhibition of BCR-dependent B-cell proliferation
